Test results taken from patent US20060015954A1, “GPR54 knock-out mammals and screening methods using them” (Paradigm Therapeutics Limited, priority 2002, published 2006).
Where two headings read alike, the source gives them in different places. Ends that are not written are not given here.

Experiments:
[1] = system: FSH secretion from the pituitary; test: Serum FSH assay after administration of exogenous GnRH; type: in vivo, mice
Description: (§1) 3) Administration of Exogenous GnRH and Effects on FSH and LH Secretion from the Pituitary
(§2) Method: 25 ng of GnRH peptide was injected 4 times in 30 min intervals and the animals killed to collect blood and pituitary 30 min after last injection. All mice were killed between 11 am-1 pm.
(§3) Animal groups: 6 WT injected with just PBS (control), 6 WT injected with GnRH made in PBS and 6 HP injected with GnRH/PBS. All WT animals were staged and used at dioestrous (end of LH and FSH surge). All mice aged 2-4 months. This was repeated for LH and FSH measurements.
Serum FSH assay: There is a 1.9-fold increase in FSH in serum of WT injected with GnRH compared to those injected with just PBS.

[2] = system: LH secretion from the pituitary; test: Serum LH assay after administration of exogenous GnRH; type: in vivo, mice
Description: as §1, §2, §3
Serum LH assay: There is a 5-fold increase in LH in serum of WT injected with GnRH compared to those injected with just PBS.

[3] = system: LH levels in the pituitary; test: Depletion of LH levels in the pituitary after stimulation by exogenous GnRH; type: in vivo, mice; settings: mutants, FIG. 15b
Description: as §2, §3
Measurement of the depletion of LH levels in the pituitary after stimulation by exogenous was measured. […] There were no deleterious effects of knocking out the gene in the mutants.

GPR54 = GPR54 (Homo sapiens, UniProt Q969F8); settings: Lee et al 1999; Ohtaki et al 2001; cited from earlier work
GPR54, sequence (Q969F8 whole entry, species assumed): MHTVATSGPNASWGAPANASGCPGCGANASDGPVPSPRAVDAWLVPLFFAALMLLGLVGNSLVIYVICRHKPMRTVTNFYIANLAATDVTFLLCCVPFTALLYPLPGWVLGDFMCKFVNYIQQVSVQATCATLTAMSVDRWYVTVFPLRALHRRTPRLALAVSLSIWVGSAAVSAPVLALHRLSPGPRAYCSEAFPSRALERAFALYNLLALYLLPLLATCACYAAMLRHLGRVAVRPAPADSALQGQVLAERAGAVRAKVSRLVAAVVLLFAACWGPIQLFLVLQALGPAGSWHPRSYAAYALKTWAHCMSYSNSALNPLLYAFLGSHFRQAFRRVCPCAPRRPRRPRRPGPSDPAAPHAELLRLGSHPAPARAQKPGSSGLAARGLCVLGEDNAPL

oxytocin secretion = settings: intravenous injection, female rat; Kotani et al 2001; cited from earlier work
melanomas = settings: mice with melanomas injected in footpads, administration by perfusion; Ohtaki et al 2001; cited from earlier work
[4] = system: B16-L16 melanoma cells transfected with the GPR54 receptor; settings: cited from earlier work
[5] = system: ovaries (ovulation of mature oocytes); test: Exogenous gonadotrophins: ovulation in GPR54 mutant females; type: in vivo, mice; settings: 1000 iu PMS followed two days later by 1000 iu bHCG, n=6
Description: This is consistent with the hypothesis that GPR54 receptors and ligands are acting at the level of the pituitary hypothalamic axis and not the end-organs.

[6] = HP (GPR54 knockout) mice injected with GnRH against WT injected with just PBS

## GnRH: gonadotropin-releasing hormone peptide injected in PBS (QHWSYGLRPG; ends and bridges not checked; UniProt P01148 24-33, looked up)
[1]; [6]
  increase in FSH in serum: 1.7 fold
[1]; WT mice injected with GnRH (25 ng x 4 at 30 min intervals) compared to WT injected with just PBS
  increase in FSH in serum: 1.9 fold
[2]; [6]
  increase in LH in serum: 5 fold
[2]; WT mice injected with GnRH compared to WT injected with just PBS
  increase in LH in serum: 5 fold
[3]
  LH levels in the pituitary after stimulation: corresponding depletion of LH levels in the pituitary

## galanin-like peptide: galanin-like peptide reported not to activate GPR54 (APAHRGRGGWTLNSAGYLLGPVLHLPQMGDQDGKRETALEILDLWKAIDGLPYSHPPQPS; Galanin-like peptide; UniProt Q9UBC7 25-84, looked up)
GPR54
  activation of GPR54: neither galanin nor galanin-like peptide activate GPR54

## kisspeptin-10: kisspeptin peptide injected intravenously in female rat (YNWNSFGLRF; ends and bridges not checked; UniProt Q15726 112-121, looked up)
Oxytocin secretion
  oxytocin secretion: stimulates oxytocin secretion

## metastin: 54 amino acid kisspeptin, product of the Kiss-1 gene, natural ligand of GPR54 (GTSLSPPPESSGSPQQPGLSAPHSRQIPAPQGAVLVQREKDLPNYNWNSFGLRF; ends and bridges not checked; UniProt Q15726 68-121, looked up)
melanomas
  metastases: significantly decreased metastases
[4]; B16-L16 melanoma cells transfected with the GPR54 receptor
  cell motility: inhibits motility
[4]; mock-transfected B16-L16 melanoma cells
  cell motility: not in mock-transfected cells

B1: bHCG: beta human chorionic gonadotrophins (protein, UniProt P0DN86 21-165, looked up)
Choriogonadotropin subunit …: SKEPLRPRCRPINATLAVEKEGCPVCITVNTTICAGYCPTMTRVLQGVLPALPQVVCNYRDVRFESIRLPGCPRGVNPVVSYAVALSCQCALCRRSTTDCGGPKDHPLTCDDPRFQDSSSSKAPPPSLPSPSRLPGPSDTPILPQ
[5]
  mutant females with ovulation of mature oocytes: 50%
